According to US9315532B2, “Fatty acid carbohydrate hybrid molecules as therapeutic agents and methods thereof” (The Johns Hopkins University, priority 2005, dated 2016):

How the values were obtained:
Jurkat cells [1] = test: Toxicity and growth inhibition assays (cell counts on days 3, 5 and 15); format: cell-based, human; conditions: Jurkat cells, 0-320 μM
Method: For cell culture studies, But4ManNAc (1) (50) was used as a mixture of anomers (α/β=10/90), But4GlcNAc (2) as pure α-anomer and But5Man (3) as pure β-anomer (It is noteworthy that the intracellular hydrolysis of butyrate esters makes the anomeric configuration less relevant in these studies and we found similar cellular effects between the α- and β-anomers in long term toxicity). Stock solutions of the sugar analogs were made in ethanol at concentrations of 10 mM and 50 mM. In the case of cells growing in suspension the solutions of 1-4 (or an ethanol control at an equivalent volume) were coated onto dishes and the ethanol was allowed to evaporate prior to plating. Unless otherwise noted, throughout this study Jurkat cells (Clone E-6, ATCC, Manassas, Va.) were cultured in RPMI 1640 medium supplemented with 300 mg/L glutamine, 5.0% fetal bovine serum (HyClone, Logan, Utah) and 1.0% of a 100× dilution of a pen/strep stock solution containing penicillin (100 units/mL) and streptomycin (100 μg/mL); HL-60 cells (ATCC, Manassas, Va.) were cultured in RPMI 1640 medium supplemented with 10% FBS and pen/strep; and AD293 (HEK) cells (Stratagene, La Jolla, Calif.) were grown in DMEM medium with 10% FBS and pen/strep. In all cases, cells were incubated in a standard 37° C. in a 5.0% CO2, water-saturated environment. Cell counting was performed with a Beckman-Coulter Z2 particle counter and hemacytometer.
Solutions of the analogs in EtOH (10 mM stock) were coated onto 24-well plates at a range of concentrations from 0-320 μM and ethanol was allowed to evaporate. Jurkat cells (1.0×10^5 cells) in 0.5 mL of medium were plated in each well (day 0). On days 3 and 5, fresh medium (1.0 mL) was added to each well. Cell cultures were mixed by gentle pipetting and 100 μL of cell suspension was taken from each well and counted. On days 7, 9, 11, 13 and 15, 1.0 mL of cell suspension was removed from each well after thorough mixing and fresh medium (1.0 mL) was added. Cells were counted on day 15 and the cell density was plotted as a percentage of control (as was done for cell counts from days 3 and 5).

Jurkat cells [2] = test: Cell viability assay (trypan blue exclusion); format: cell-based, human; conditions: 200 μM
Method: Jurkat cells (2.0×10^5 cells/mL) were seeded with 1-4 at 200 μM in 6-well T. C. plates. Aliquots of cell suspension (20 μL) were removed on a daily basis diluted with either PBS (20 μL) or trypan blue solution (20 μL) and cell viability was determined by using the standard trypan blue exclusion method; three replicate counts were taken for each condition.

Jurkat cells [3] = test: Flow cytometry analysis of cell cycle status (PI/RNase A); format: cell-based, human; conditions: human cancer cells
Method: The cell cycle arrest induced by butyrate analogs was studied following the standard protocol (49). Briefly, Jurkat cells (2.3×10^5 cells/mL) were incubated with various concentrations of 1 (0, 25, 50, 75, 100, 150 and 200 μM); 2 (200 μM); 3 (200 μM); and 4 (200 μM) for five days. The cells were then harvested, counted, washed twice with PBS, re-suspended in PBS (500 μL), added to a cold solution of 78% aqueous ethanol (4.5 mL) using a glass Pasteur pipette and kept at 2.0° C. for at least 24 h. The fixed cells were centrifuged twice to remove the ethanol completely, re-suspended in propidium iodide (PI)/ribonuclease A (RNase A) staining buffer (BD Pharmingen, Catalog No. 550825, San Diego, Calif.) (500 μL for 1.0×10^6 cells), incubated at 37° C. for 15 min and analyzed by flow cytometry. The cellular aggregates were excluded from single cell populations using an area-width plot (FL2—PT fluorescence) for the cell cycle status determination. At least 10,000 gated events were counted for each determination.
Jurkat cells (2.5×10^5 cells/mL) were incubated with either ethanol (0.2%) or 1 (100 μM or 200 μM). Aliquots of cell suspensions were taken on day 0 and days 2-6, washed with PBS (twice) and fixed in 75% ethanol at 2.0° C. for at least 48 h. The cells were stained with PI/RNase staining buffer and analyzed by flow cytometry as given above.

[4] = tested on: sialic acid biosynthesis in Jurkat cells; test: Assay for total sialic acid production (periodate-resorcinol); format: cell-based, human; conditions: 50 and 100 mM, 48 h
Method: Jurkat cells (5.0×10^6 cells in 10 mL medium) were incubated with 1-5 at various concentrations. […] The cell lysates were analyzed by using an adapted version of the periodate-resorcinol assay (36, 59) with the periodic acid oxidation step performed on ice to allow quantification of total (i.e., free monosaccharide plus glycoconjugate-bound) sialic acid. For each assay, a standard curve was obtained using N-acetylneuraminic acid (Pfanstiehl, Waukegan, Ill.) for calibration.

Jurkat cells [5] = test: Toxicity of sodium butyrate (5) towards cells primed with ManNAc; format: cell-based, human
Method: Jurkat cells (5.0×10^5 per mL) were incubated with PBS and ManNAc at 50 or 100 mM. After 48 h, the cells were counted, harvested, washed once in fresh medium and plated in a 24-well plate containing various concentrations of sodium butyrate (5) (0-2.0 mM; a stock solution of 200 mM in PBS was used for dilutions and control samples). Cell cultures were maintained and growth was monitored for 15 days as described above under the toxicity and growth inhibition assays.

HeLa cells = test: Morphological changes to HeLa cells; format: cell-based, human; conditions: 3 days; 1 at 250 μM, 5 at 5.0 mM
Method: (§1) The studies on morphological changes induced by sodium butyrate (5) and But4ManNAc (1) were performed following a reported procedure (45). Briefly, HeLa cells (200,000 cells per well in a 6-well plate) were plated and allowed to form monolayers. After 24 h, the supernatant was aspirated, fresh medium (4.0 mL) was added and treated with either ethanol (20 μL (0.5%), control), 5 (5.0 mM), or 1 (250 μM). For the AD 293 (HEK) cells 2.0×10^6 cells in 10 mL of medium (100 mm tissue culture dishes) were plated and treated, immediately after plating, with either ethanol (50 μL, control), 5 (5.0 mM), or 1 (250 μM). Images were acquired at various time intervals under bright field using a Nikon Eclipse TE200 inverted microscope equipped with a DXM 1200 digital camera.

AD293 (HEK) cells = test: Morphological changes / toxicity in AD293 (HEK) cells; format: cell-based, human; conditions: 2 days; 1 at 250 μM, 5 at 5.0 mM
Method: as §1

p21WAF1/Cip1 promoter = test: Luc-p21WAF1/Cip1 luciferase reporter gene assay in AD293 (HEK) cells; format: cell-based, human
Method: The plasmid Luc-p21^Cip1/WAF1 (a gift from Vogelstein Laboratory, JHMI, Baltimore, Md.) was amplified and purified utilizing a plasmid maxi kit (Cat. No. 12163. Qiagen, Valencia, Calif.) following the manufacturer's protocol. HEK cells (2.5×10^5) were seeded in 3.0 mL medium and grown in 6-well T. C. plates. Transfection was performed using lipofectamine 2000 (Cat. No. 11668-019, Invitrogen, Carlsbad, Calif.) following the protocol supplier's protocol. Cells were trypsinized 24 h after transfection and seeded at 250,000 cells per well with concentrations of 1-4 shown in FIG. 3a or 1, 5, and ManNAc plus 5 at the concentrations shown in FIG. 3c. After 72 h, the cells were trypsinized, counted and lysed in 300 μL of luciferase cell culture lysis buffer and diluted five-fold in the same buffer. Luminometry was performed utilizing the ‘Luciferase Assay System’ (Cat. No. 1500, 4550, Promega, Madison, Wis.) following supplier's protocol. Luciferase Assay Reagent (100 μL) was added to the cell lysate (20 μL) in luminometer tubes (Cat. No. 55.476, Sarstedt, Newton, N.C.) and the luminescence was measured immediately using a Berthold Sirius Luminometer. The final values were normalized relative to ethanol-treated controls and reported on a per cell basis.

p21WAF1 = test: Endogenous p21WAF1 assay (anti-p21WAF1 antibody, flow cytometry) in Jurkat cells; format: cell-based, human; conditions: one week, 1 at 250 μM, 5 at 2.5 mM
Method: Endogenous expression of p21^WAF1 was detected following a reported procedure (58) with minor modifications. Jurkat cells (5.0×10^6 cells in 10 mL medium) were incubated with either ethanol or 1 (250 μM or 5 (2.5 mM). On a daily basis, aliquots of cells (˜1.0×10^6 per sample) were taken, washed with PBS (2×1.0 mL), fixed with Reagent A (Fix and Perm Kit, Caltag Laboratories, CA, Cat. No. GAS-003) for 10 min at room temperature, washed with washing buffer (PBS containing 5.0% FBS, 0.1% NaN3), re-suspended in 95% v/v methanol and kept on ice. After 30 min, cells were again washed with washing buffer and incubated with FITC-conjugated anti-p21^WAF1 antibody (Calbiochem, San Diego, Calif., Cat. No. OP64F) at 2.0 μg/mL in Reagent B (100 μL) (Fix and Perm Kit, Caltag Laboratories) for 1.0 h at room temperature in the dark. Finally, cells were re-suspended in washing buffer (500 μL) and analyzed by flow cytometry. Three replicate samples were taken for each condition and 10,000 events were counted for each sample.

| SMILES | long term growth characteristics (day 15) (Jurkat cells [1]) | reduced cell viability in trypan blue assay (Jurkat cells [2]) | apoptosis versus cell cycle arrest (summary) (Jurkat cells [3]) | level required for even partial cell inhibition and toxicity, when used separately (Jurkat cells [5]; Jurkat cells, day 15) | also measured |
| --- | --- | --- | --- | --- | --- |
| CCCC(=O)OC[C@H]1OC(OC(=O)CCC)[C@@H](OC(=O)CCC)[C@@H](OC(=O)CCC)[C@@H]1OC(=O)CCC (stereo partly drawn) [compound 3, 1,2,3,4,6-Penta-O-butanoyl-α,β-D-mannopyranose] | resumed cell growth over the long term | not | only provided transient cell cycle arrest | – | – |
| CC(=O)N[C@@H]1C(O)O[C@H](CO)[C@@H](O)[C@@H]1O (stereo partly drawn) [ManNAc, N-acetyl-D-mannosamine, reference compound] | – | – | – | 100 mM | increase in total sialic acid [4]: 20-30 fold |
| CCCC(=O)OC[C@H]1O[C@H](OC(=O)CCC)[C@H](NC(C)=O)[C@@H](OC(=O)CCC)[C@@H]1OC(=O)CCC [compound 2, 2-Acetamido-1,3,4,6-tetra-O-butanoyl-2-deoxy-α-D-glucopyranose] | resumed cell growth over the long term | not | only provided transient cell cycle arrest | – | melting point: 152 to 154 °C |
| CCCC(=O)OCC(COC(=O)CCC)OC(=O)CCC [compound 4, tributyrin, reference compound] | resumed cell growth over the long term | – | only provided transient cell cycle arrest | – | cell proliferation at early time points (days 3 & 5) (Jurkat cells [1]; days 3 and 5): minimal inhibition |
| CCCC(=O)[O-].[Na+] [compound 5, Sodium n-butyrate, reference compound] | – | – | – | 2.0 mm | morphological changes / differentiation of HeLa cells (HeLa cells): growth of extended processes; apoptosis / toxicity in AD293 cells (AD293 (HEK) cells): toxicity; concentration level required for p21WAF1/Cip1 activation (p21WAF1/Cip1 promoter): millimolar concentrations required; endogenous p21WAF1 levels (p21WAF1): increased p21^WAF1 levels; growth of ManNAc-treated cells compared to untreated controls (Jurkat cells [5]; Jurkat cells pre-incubated with ManNAc 50 or 100 mM, 5 at 0-2.0 mM, five days): inhibited; concentration at which ManNAc-treated cells showed susceptibility (Jurkat cells [5]; Jurkat cells pre-incubated with ManNAc, day 15): ≥ 2.0 mM; growth of control cells (without ManNAc) (Jurkat cells [5]; Jurkat cells, 5 at 0-2.0 mM, day 15): almost completely recovered from early inhibition |
